Earlier results, collected in patent US11872093B1, “Method of marking lesions” (NoduGloH LLC, priority 2022, dated 2024).

Settings: ICG dye marking without use of a coil

## CC1(C)C(/C=C/C=C/C=C/C=C2\N(CCCCS(=O)(=O)O)c3ccc4ccccc4c3C2(C)C)=[N+](CCCCS(=O)(=O)[O-])c2ccc3ccccc3c21 [ICG dye, Indocyanine Green]
  persistence of dye effect after marking without a coil: fade away over several hours
